What all share (type): cell-based
Assay [1] addresses T1, hPIEZO1 (Homo sapiens, UniProt Q92508). As to the kind of experiment: single-cell Fura-2 Ca2+ imaging. The settings on record: activator; HEK-P1-KO cells, 1 mM Jedi1, pH 7.2, 1.3 mM Ca2+.
Assay [2] deals with hPIEZO1 (Homo sapiens, UniProt Q92508, L322P). As to the kind of experiment: FLIPR GCaMP6s Ca2+ assay.
Assay [3] addresses T1, hPIEZO1. As to the kind of experiment: FLIPR GCaMP6s Ca2+ assay.
Assay [4] deals with mPIEZO1 (Mus musculus, UniProt E2JF22, L329P). The assay can be described thus: FLIPR GCaMP6s Ca2+ assay.
Sequence of mPIEZO1 (Mus musculus, UniProt E2JF22, L329P) (E2JF22 whole entry L329P): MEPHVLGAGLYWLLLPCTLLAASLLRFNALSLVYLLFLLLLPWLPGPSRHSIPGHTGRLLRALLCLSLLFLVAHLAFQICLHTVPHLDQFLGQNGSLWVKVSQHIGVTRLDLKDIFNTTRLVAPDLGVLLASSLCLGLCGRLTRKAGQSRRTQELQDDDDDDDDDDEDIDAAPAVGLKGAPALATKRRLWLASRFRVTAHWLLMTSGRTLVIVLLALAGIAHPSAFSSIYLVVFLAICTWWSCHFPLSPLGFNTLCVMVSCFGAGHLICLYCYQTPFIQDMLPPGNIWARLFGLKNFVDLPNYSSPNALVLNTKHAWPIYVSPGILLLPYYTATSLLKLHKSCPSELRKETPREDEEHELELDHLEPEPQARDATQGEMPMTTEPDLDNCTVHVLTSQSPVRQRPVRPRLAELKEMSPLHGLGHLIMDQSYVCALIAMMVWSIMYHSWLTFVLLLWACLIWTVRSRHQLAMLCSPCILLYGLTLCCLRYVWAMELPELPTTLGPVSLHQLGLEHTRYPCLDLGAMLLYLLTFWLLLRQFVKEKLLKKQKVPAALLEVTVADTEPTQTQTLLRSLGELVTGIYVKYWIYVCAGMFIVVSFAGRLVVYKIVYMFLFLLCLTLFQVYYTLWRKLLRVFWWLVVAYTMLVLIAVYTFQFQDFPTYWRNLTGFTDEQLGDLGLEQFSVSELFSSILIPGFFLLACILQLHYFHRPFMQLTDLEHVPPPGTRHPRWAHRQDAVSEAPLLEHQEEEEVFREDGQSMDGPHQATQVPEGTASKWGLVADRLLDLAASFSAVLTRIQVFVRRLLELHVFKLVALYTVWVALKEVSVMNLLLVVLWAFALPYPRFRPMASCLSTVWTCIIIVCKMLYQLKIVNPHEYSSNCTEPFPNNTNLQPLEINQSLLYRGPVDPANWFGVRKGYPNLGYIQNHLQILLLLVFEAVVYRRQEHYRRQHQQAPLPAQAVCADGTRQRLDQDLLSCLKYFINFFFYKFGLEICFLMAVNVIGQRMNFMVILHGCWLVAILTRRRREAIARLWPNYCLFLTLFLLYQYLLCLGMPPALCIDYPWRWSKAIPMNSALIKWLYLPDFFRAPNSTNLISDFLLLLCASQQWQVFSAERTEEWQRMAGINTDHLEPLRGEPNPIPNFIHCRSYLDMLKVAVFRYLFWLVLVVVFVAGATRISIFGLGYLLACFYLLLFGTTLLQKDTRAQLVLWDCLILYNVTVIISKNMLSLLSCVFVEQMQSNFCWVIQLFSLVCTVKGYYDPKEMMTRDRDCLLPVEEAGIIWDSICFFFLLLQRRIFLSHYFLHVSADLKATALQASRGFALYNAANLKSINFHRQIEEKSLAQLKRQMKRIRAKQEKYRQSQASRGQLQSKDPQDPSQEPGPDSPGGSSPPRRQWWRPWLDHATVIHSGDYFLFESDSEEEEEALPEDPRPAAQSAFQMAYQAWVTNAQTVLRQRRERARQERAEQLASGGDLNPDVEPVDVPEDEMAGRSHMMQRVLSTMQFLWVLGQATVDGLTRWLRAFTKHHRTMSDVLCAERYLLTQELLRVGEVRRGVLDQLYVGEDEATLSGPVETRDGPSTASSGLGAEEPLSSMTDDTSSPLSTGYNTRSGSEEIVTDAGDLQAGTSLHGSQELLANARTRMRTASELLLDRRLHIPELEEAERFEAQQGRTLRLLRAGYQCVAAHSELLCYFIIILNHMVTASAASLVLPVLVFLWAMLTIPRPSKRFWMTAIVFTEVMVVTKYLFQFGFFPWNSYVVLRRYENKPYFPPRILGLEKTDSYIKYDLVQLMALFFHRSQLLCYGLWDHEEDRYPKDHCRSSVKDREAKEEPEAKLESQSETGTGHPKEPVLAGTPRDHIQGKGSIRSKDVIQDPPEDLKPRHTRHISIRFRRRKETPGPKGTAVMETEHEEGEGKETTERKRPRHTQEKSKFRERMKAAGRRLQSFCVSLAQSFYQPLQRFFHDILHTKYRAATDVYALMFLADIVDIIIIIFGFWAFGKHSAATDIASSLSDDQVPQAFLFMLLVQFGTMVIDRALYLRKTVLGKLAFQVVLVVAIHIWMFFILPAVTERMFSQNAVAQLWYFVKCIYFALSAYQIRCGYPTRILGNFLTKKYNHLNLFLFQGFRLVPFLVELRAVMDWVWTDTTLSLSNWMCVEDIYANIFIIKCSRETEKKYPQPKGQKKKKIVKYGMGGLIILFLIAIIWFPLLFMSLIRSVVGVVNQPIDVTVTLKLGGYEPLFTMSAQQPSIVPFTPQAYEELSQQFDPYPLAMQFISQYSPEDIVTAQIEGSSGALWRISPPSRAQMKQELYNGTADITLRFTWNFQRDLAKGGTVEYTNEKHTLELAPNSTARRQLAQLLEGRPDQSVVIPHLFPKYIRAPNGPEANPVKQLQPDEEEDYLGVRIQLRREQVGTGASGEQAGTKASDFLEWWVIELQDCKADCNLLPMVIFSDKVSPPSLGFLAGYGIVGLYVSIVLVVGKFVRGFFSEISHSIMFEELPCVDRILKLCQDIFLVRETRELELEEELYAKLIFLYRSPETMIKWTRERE
Assay [5] concerns the target mPIEZO1 (Mus musculus, UniProt E2JF22). As to the kind of experiment: FLIPR GCaMP6s Ca2+ assay.

What is called EC50 is the midpoint of the concentration-response curve. High values mean a less potent agent, low ones a more potent agent.

The structures appear in SMILES notation.

T1 sequence (Q92508 whole entry): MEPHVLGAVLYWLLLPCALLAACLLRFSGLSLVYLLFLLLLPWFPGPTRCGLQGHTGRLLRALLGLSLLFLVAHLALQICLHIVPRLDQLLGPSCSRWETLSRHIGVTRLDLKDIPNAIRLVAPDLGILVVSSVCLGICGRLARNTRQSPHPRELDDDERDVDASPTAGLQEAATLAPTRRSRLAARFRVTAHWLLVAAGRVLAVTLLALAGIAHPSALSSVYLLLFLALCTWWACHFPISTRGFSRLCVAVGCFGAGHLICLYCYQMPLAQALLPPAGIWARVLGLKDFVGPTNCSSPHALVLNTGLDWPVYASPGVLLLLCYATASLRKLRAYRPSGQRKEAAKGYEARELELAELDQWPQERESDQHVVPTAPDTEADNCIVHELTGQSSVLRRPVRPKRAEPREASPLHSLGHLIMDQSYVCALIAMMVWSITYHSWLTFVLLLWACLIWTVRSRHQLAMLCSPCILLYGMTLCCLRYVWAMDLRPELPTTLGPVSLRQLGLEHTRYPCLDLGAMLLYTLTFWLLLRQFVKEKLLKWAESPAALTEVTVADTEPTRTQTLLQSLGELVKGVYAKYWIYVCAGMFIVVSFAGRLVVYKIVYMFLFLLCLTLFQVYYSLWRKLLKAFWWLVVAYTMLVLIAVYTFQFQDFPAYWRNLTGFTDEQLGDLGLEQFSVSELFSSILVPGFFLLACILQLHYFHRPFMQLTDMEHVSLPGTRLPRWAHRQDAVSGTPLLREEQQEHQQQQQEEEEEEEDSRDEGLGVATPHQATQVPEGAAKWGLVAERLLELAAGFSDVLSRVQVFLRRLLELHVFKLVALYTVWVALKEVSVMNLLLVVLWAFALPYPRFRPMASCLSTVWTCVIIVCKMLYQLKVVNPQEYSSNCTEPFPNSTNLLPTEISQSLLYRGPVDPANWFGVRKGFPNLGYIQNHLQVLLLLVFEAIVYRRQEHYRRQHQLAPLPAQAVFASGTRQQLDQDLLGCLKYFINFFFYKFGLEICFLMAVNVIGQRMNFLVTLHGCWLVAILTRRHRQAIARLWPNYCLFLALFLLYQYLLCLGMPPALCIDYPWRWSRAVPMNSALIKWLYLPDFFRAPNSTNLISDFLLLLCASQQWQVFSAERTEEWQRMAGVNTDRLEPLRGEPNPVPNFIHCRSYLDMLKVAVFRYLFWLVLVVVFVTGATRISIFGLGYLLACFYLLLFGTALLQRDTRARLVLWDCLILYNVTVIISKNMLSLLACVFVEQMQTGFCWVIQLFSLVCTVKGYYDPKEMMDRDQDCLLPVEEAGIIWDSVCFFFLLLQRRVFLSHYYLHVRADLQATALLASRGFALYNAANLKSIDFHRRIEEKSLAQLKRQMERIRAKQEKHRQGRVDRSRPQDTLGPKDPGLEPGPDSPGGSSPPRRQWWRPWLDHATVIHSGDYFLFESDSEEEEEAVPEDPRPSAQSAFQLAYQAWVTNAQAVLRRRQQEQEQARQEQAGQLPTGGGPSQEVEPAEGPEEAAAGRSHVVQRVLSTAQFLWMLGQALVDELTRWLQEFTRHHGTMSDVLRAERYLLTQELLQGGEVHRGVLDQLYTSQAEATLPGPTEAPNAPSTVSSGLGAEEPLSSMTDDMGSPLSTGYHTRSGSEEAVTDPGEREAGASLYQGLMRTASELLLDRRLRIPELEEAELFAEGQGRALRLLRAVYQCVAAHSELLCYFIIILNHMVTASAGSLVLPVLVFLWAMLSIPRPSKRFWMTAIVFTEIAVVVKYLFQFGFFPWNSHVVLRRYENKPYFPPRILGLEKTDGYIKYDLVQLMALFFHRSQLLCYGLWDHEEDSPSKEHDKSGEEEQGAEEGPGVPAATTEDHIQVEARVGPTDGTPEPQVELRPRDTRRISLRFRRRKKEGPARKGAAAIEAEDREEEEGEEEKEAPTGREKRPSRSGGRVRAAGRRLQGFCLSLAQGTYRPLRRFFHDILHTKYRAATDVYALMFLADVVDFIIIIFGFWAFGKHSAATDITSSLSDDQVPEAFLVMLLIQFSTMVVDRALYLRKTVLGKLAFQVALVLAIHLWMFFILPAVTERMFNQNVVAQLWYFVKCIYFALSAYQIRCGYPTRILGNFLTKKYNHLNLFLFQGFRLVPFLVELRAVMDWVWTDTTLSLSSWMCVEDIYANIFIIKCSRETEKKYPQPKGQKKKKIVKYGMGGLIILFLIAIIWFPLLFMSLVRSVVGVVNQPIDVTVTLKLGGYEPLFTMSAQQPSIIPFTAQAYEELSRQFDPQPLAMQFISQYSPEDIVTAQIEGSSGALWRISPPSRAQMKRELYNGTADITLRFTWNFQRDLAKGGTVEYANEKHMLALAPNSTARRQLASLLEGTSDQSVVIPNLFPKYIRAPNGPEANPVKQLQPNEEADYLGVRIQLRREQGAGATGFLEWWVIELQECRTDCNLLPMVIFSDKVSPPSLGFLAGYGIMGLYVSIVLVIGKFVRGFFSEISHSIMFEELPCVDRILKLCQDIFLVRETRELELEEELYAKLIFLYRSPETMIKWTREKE
Sequence of mPIEZO1 (Mus musculus, UniProt E2JF22) (E2JF22 whole entry): as the sequence (E2JF22 whole entry L329P) above, with P329L counted along it
Sequence of hPIEZO1 (Homo sapiens, UniProt Q92508, L322P) (Q92508 whole entry L322P): as the sequence (Q92508 whole entry) above, with L322P counted along it

As for `Cc1oc(-c2ccccc2)cc1C(=O)O` [Jedi1], in assay [1], the “Fura-2 ratio change at 1 mM” value is “comparable Fura-2 signal increase in response to the application of either Jedi1 or Yoda1”.

For `Clc1cccc(Cl)c1CSc1nnc(-c2cnccn2)s1` [Yoda1], the half-maximal effective concentration (EC50) was found to be 3.1 µM in assay [2], 9.1 µM in assay [3], 1.3 µM in assay [4] and 4.3 µM in assay [5].

(Values after publication PMC12377734 (Proceedings of the National Academy of Sciences of the …, 2025).)
